According to ChEMBL document CHEMBL6103594, “Synthesis and evolution of 16-membered macrolide carrimycin derivatives as a novel class of anti-HCoV-OC43 agents targeting viral FSE RNA” (Eur J Med Chem, 2025):
Active and inactive are the calls of the source. No cut-off for these calls is given here.

Tests used:
Human coronavirus OC43 [1] = assay: Antiviral activity against HCoV-OC43; type: functional, organism-based
Human coronavirus 229E [2] = assay: Antiviral activity against HCoV-229E; type: functional, organism-based
[3] = target: T1, DIS3-like exonuclease 2 (Homo sapiens) (UniProt Q8IYB7); assay: (§1) Binding affinity to DIS3L2 (unknown origin) assessed as dissociation constant by SPR analysis
T1 sequence (whole entry): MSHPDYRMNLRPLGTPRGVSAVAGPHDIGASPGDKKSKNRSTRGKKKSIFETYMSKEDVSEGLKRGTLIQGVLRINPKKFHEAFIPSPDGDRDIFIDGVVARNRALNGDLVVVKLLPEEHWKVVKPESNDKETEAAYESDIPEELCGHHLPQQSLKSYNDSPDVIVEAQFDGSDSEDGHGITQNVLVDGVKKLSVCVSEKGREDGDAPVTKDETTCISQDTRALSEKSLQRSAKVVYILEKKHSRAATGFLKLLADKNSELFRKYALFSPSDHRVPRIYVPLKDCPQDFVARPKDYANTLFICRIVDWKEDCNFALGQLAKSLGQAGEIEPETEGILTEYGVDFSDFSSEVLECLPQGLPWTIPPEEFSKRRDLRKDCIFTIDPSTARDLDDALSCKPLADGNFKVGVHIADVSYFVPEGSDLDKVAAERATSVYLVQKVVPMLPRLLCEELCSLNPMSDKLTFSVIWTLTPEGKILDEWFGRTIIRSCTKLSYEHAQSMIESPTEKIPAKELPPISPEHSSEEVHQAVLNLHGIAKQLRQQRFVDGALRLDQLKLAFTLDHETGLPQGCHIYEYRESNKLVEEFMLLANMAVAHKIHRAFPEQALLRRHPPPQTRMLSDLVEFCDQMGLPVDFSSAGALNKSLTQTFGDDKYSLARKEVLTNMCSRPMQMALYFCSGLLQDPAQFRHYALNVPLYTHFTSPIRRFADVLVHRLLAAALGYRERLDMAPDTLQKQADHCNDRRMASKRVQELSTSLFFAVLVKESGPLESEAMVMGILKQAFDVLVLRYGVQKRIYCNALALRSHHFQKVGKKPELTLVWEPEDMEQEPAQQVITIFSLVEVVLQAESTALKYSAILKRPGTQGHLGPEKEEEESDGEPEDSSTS

DIS3-like exonuclease 2 = target: T2, DIS3-like exonuclease 2 (Homo sapiens, UniProt Q8IYB7); assay: as §1
T2 sequence (Q8IYB7 whole entry): T1 sequence (whole entry)

[4] = Cytotoxicity against human NCI-H460 cells incubated for 72 hrs by CCK8 assay; type: toxicity, cell-based; settings: read-out: EC50
Human coronavirus OC43 [5] = assay: Antiviral activity against HCoV-OC43 infected in human NCI-H460 cells incubated for 72 hrs by CCK8 assay; type: functional, organism-based; settings: Betacoronavirus 1, NCI-H460, 72 h
FSE RNA pseudoknot = assay: Binding affinity to CM5 chip-immobilized coronavirus FSE RNA pseudoknot assessed as dissociation constant by SPR analysis; type: nucleic-acid assay, unidentified human coronavirus
Human coronavirus OC43 [6] = assay: Antiviral activity against HCoV-OC43 at replication stage in human Huh-7 cells assessed as dsRNA level at 2 uM treated immediately after infection incubated for 4 to 10 hrs by immunofluorescence based analysis; type: functional, organism-based; settings: time 4-10 hrs
Human coronavirus 229E [7] = assay: Antiviral activity against HCoV-229E at replication stage in human Huh-7 cells assessed as dsRNA level at 2 uM treated immediately after infection incubated for 4 to 10 hrs by immunofluorescence based analysis; type: functional, organism-based; settings: time 4-10 hrs
[8] = target: T1, DIS3-like exonuclease 2 (Homo sapiens); assay: Binding affinity to DIS3L2 in human NCI-H460 cells assessed as increase in thermal stability at 10 uM incubated for 6 hrs followed by heat exposure at 55 to 75 degreeC for 3 mins by CETSA; type: cell-based; settings: time 363.0 min
[9] = Selectivity index, ratio of CC50 for cytotoxicity against human NCI-H460 cells to EC50 for antiviral activity against HCoV-OC43 infected in human NCI-H460 cells; type: toxicity, cell-based, NCI-460; settings: read-out: Ratio CC50/EC50

Compound	EC50 (Human coronavirus OC43 [1]; Betacoronavirus 1)	EC50 (Human coronavirus 229E [2]; Human coronavirus 229E)	CC50 at 72 h [4]	EC50 (Human coronavirus OC43 [5])	selectivity ratio [9]	further results
CO[C@@H]1[C@@H](O[C@@H]2O[C@H](C)[C@@H](O[C@H]3C[C@@](C)(O)[C@@H](OC(=O)CC(C)C)[C@H](C)O3)[C@H](N(C)C)[C@H]2O)[C@@H](CC=O)C[C@@H](C)[C@@H](O[C@H]2CC[C@H](N(C)C)[C@@H](C)O2)/C=C/C=C/C[C@@H](C)OC(=O)C[C@H]1OC(C)=O	11.8 µM	6.38 µM				
CO[C@@H]1[C@@H](O[C@@H]2O[C@H](C)[C@@H](O[C@H]3C[C@@](C)(O)[C@@H](OC(=O)CC(C)C)[C@H](C)O3)[C@H](N(C)C)[C@H]2O)[C@@H](CC=O)C[C@@H](C)[C@@H](O[C@H]2CC[C@H](N(C)C)[C@@H](C)O2)/C=C/C=C/C[C@@H](C)OC(=O)C[C@H]1O	5.95 µM	3.61 µM				
CO[C@@H]1[C@@H](O[C@@H]2O[C@H](C)[C@@H](O[C@H]3C[C@@](C)(O)[C@@H](OC(=O)Cc4ccc(Cl)cc4)[C@H](C)O3)[C@H](N(C)C)[C@H]2O)[C@@H](CC=O)C[C@@H](C)[C@@H](O[C@H]2CC[C@H](N(C)C)[C@@H](C)O2)/C=C/C=C/C[C@@H](C)OC(=O)C[C@H]1O			17.4 µM	0.85 µM	20.5	Activity [3]: Dose-dependent-effect; Kd (DIS3-like exonuclease 2): 4.67 µM; Kd (FSE RNA pseudoknot): 7.29 µM; Activity (FSE RNA pseudoknot; unidentified human coronavirus): Dose-dependent-effect; Activity (Human coronavirus OC43 [6]): Active; Activity (Human coronavirus 229E [7]): Active; Activity [8]: Active
CCC(=O)O[C@@H]1CC(=O)O[C@H](C)C/C=C/C=C/[C@H](O[C@H]2CC[C@H](N(C)C)[C@@H](C)O2)[C@H](C)C[C@H](CC=O)[C@H](O[C@@H]2O[C@H](C)[C@@H](O[C@H]3C[C@@](C)(O)[C@@H](OC(=O)CC(C)C)[C@H](C)O3)[C@H](N(C)C)[C@H]2O)[C@H]1OC	10.2 µM	3.52 µM				
CCC(=O)O[C@@H]1CC(=O)O[C@H](C)C/C=C/C=C/[C@H](O[C@H]2CC[C@H](N(C)C)[C@@H](C)O2)[C@H](C)C[C@H](CC=O)[C@H](O[C@@H]2O[C@H](C)[C@@H](O[C@H]3C[C@@](C)(O)[C@@H](O)[C@H](C)O3)[C@H](N(C)C)[C@H]2O)[C@H]1OC	> 50 µM	27.4 µM				
SPIRAMYCIN						EC50 (Human coronavirus OC43 [1]): > 50 µM; EC50 (Human coronavirus 229E [2]): 29.3 µM
CCCC(=O)O[C@H]1[C@H](C)O[C@@H](O[C@H]2[C@H](N(C)C)[C@@H](O)[C@H](O[C@H]3[C@@H](CC=O)C[C@@H](C)[C@@H](O[C@H]4CC[C@H](N(C)C)[C@@H](C)O4)/C=C/C=C/C[C@@H](C)OC(=O)C[C@@H](O)[C@@H]3OC)O[C@@H]2C)C[C@@]1(C)O			33.1 µM	5.17 µM	6.4	
CO[C@@H]1[C@@H](O[C@@H]2O[C@H](C)[C@@H](O[C@H]3C[C@@](C)(O)[C@@H](O)[C@H](C)O3)[C@H](N(C)C)[C@H]2OC(=O)c2ccc(C(F)(F)F)cc2)[C@@H](CC=O)C[C@@H](C)[C@@H](O[C@H]2CC[C@H](N(C)C)[C@@H](C)O2)/C=C/C=C/C[C@@H](C)OC(=O)C[C@H]1O			6.74 µM	5.96 µM	1.1	
CO[C@@H]1[C@@H](O[C@@H]2O[C@H](C)[C@@H](O[C@H]3C[C@@](C)(O)[C@@H](O)[C@H](C)O3)[C@H](N(C)C)[C@H]2OC(=O)/C=C/c2ccccc2)[C@@H](CC=O)C[C@@H](C)[C@@H](O[C@H]2CC[C@H](N(C)C)[C@@H](C)O2)/C=C/C=C/C[C@@H](C)OC(=O)C[C@H]1O			5.57 µM	1.48 µM	3.8	
CCCCC(=O)O[C@H]1[C@H](C)O[C@@H](O[C@H]2[C@H](N(C)C)[C@@H](O)[C@H](O[C@H]3[C@@H](CC=O)C[C@@H](C)[C@@H](O[C@H]4CC[C@H](N(C)C)[C@@H](C)O4)/C=C/C=C/C[C@@H](C)OC(=O)C[C@@H](O)[C@@H]3OC)O[C@@H]2C)C[C@@]1(C)O			34 µM	5.61 µM	6.1	
CCCCC(=O)O[C@H]1[C@H](O[C@H]2[C@@H](CC=O)C[C@@H](C)[C@@H](O[C@H]3CC[C@H](N(C)C)[C@@H](C)O3)/C=C/C=C/C[C@@H](C)OC(=O)C[C@@H](O)[C@@H]2OC)O[C@H](C)[C@@H](O[C@H]2C[C@@](C)(O)[C@@H](O)[C@H](C)O2)[C@@H]1N(C)C			33.5 µM	5.35 µM	6.2	
COc1ccc(CC(=O)O[C@H]2[C@H](C)O[C@@H](O[C@H]3[C@H](N(C)C)[C@@H](OC(C)=O)[C@H](O[C@H]4[C@@H](CC=O)C[C@@H](C)[C@@H](O[C@H]5CC[C@H](N(C)C)[C@@H](C)O5)/C=C/C=C/C[C@@H](C)OC(=O)C[C@@H](O)[C@@H]4OC)O[C@@H]3C)C[C@@]2(C)O)cc1			13.1 µM	> 6.25 µM	< 2.1	
CO[C@@H]1[C@@H](O[C@@H]2O[C@H](C)[C@@H](O[C@H]3C[C@@](C)(O)[C@@H](O)[C@H](C)O3)[C@H](N(C)C)[C@H]2O)[C@@H](CC=O)C[C@@H](C)[C@@H](O[C@H]2CC[C@H](N(C)C)[C@@H](C)O2)/C=C/C=C/C[C@@H](C)OC(=O)C[C@H]1OC(C)=O	> 50 µM	25.4 µM				
C=CC(=O)O[C@H]1[C@H](C)O[C@@H](O[C@H]2[C@H](N(C)C)[C@@H](O)[C@H](O[C@H]3[C@@H](CC=O)C[C@@H](C)[C@@H](O[C@H]4CC[C@H](N(C)C)[C@@H](C)O4)/C=C/C=C/C[C@@H](C)OC(=O)C[C@@H](O)[C@@H]3OC)O[C@@H]2C)C[C@@]1(C)O			38.4 µM	12 µM	3.2	
CO[C@@H]1[C@@H](O[C@@H]2O[C@H](C)[C@@H](O[C@H]3C[C@@](C)(O)[C@@H](O)[C@H](C)O3)[C@H](N(C)C)[C@H]2OC(=O)C2CCCC2)[C@@H](CC=O)C[C@@H](C)[C@@H](O[C@H]2CC[C@H](N(C)C)[C@@H](C)O2)/C=C/C=C/C[C@@H](C)OC(=O)C[C@H]1O			20 µM	> 12.5 µM	< 1.6	
